In general, IC50 refers to the concentration needed to halve the response being measured. The low end stands for greater potency, the high end for weaker potency.

Each structure is given as a SMILES string. Counter-ions that a name gives are not always drawn. A value given as a limit tells only on which side of the number the result lay.

In one test the target is (Homo sapiens, UniProt P07996). In words: ELISA based assays of TSP1 activation of latent TGF-β (purified protein components or TSP1-treated cell conditioned media). As to conditions: at 1 pm. Also on record: purchased R&D Systems. Format: biochemical. How it is done: Compound 35 was evaluated for its ability to inhibit TGF-β in both ELISA based assays with purified protein components (latent TGFβ and TSP1 or in TSP1-treated cell conditioned media).
(§1) For initial screening, an ELISA-based screening assay was used in which purified human platelet TSP-1 was incubated with compounds and then incubated with recombinant latent TGF-β1 (purchased from R&D Systems). Activity is measured in a commercially available ELISA which detects only active TGF-β (R &D Systems). Activity in the presence of compounds is compared to activity in TSP-1+latent TGF-β samples without inhibitory compounds (Lu et al. (2016) Am J Pathol 186:678-690).
Target sequence in this assay (P07996 19-1170): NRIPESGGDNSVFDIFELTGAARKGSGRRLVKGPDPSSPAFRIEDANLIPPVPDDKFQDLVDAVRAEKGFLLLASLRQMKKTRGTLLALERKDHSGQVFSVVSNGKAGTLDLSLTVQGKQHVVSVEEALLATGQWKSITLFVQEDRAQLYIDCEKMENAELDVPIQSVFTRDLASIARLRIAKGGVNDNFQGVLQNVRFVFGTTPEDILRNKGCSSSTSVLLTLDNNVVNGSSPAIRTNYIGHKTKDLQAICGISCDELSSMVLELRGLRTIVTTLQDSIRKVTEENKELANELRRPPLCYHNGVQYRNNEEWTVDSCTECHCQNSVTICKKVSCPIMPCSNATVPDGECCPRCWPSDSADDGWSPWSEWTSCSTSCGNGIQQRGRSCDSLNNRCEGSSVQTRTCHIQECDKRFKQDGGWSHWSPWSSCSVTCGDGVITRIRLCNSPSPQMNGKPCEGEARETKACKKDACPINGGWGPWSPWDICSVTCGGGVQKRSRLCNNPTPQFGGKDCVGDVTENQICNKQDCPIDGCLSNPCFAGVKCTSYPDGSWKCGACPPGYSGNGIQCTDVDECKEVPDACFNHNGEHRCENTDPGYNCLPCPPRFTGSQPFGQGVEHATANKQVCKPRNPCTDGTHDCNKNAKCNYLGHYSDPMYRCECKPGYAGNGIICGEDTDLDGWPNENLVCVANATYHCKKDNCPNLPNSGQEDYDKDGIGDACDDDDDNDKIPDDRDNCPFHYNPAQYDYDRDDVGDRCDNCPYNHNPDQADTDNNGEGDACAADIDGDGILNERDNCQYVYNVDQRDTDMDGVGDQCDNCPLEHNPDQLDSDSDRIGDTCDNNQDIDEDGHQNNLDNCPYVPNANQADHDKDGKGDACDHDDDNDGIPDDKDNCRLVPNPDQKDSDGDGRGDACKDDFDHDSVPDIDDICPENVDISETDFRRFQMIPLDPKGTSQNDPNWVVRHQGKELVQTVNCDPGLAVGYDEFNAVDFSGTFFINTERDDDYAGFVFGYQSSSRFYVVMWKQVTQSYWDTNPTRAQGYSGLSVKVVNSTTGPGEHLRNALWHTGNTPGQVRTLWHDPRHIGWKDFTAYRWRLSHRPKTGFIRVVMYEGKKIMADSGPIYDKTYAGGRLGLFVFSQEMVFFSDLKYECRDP
Turning to `CC(=O)N[C@@H](CCCCN)c1nnc(-c2ccccc2)s1` [Compound 35, (S)—N-(5-amino-1-(5-phenyl-1,3,4-thiadiazol-2-yl)pentyl)acetamide], the “inhibition of TGF-β” value is listed as 15%.

The test is the same for the next values; noted with them: at 50 pm.
As for `CC(=O)N[C@@H](CCCCN)c1nnc(-c2ccccc2)s1` [Compound 35, (S)—N-(5-amino-1-(5-phenyl-1,3,4-thiadiazol-2-yl)pentyl)acetamide], the “inhibition of TGF-β” value is recorded as 67%.

Staying with this test, now noted: at 100 pm.
For `CC(=O)N[C@@H](CCCCN)c1nnc(-c2ccccc2)s1` [Compound 35, (S)—N-(5-amino-1-(5-phenyl-1,3,4-thiadiazol-2-yl)pentyl)acetamide], the “inhibition of TGF-β” value is listed as 67%.

In the next test the target is (Homo sapiens, UniProt P07996). The experiment in a line: Secondary Assay, inhibitory activity of thiadiazole and oxadiazole analogs as TGF-beta inhibitors. It is filed as biochemical. The settings on record: Table I. How it is done:
A summary of the inhibitory activity of representative thiadiazole analogs (Tables i and ii) and oxadiazole analogs (Table ii) is shown below.
as §1
To specifically assess activity of compounds in liver cell specific assays, two different assays were used. In the first, human hepatic stellate cells were incubated overnight in low serum media to condition the media with secreted latent TGF-β. Purified TSP1 either pre-incubated with compounds or not will be added to cultures and then conditioned media harvested to assess TGF-β biological activity using the R&D Systems ELISA as above. Hepatic stellate cells will be purchased from commercial sources. Although hepatic stellate cells are the primary drivers of liver fibrosis, conditions which drive liver fibrosis can induce hepatocyte TSP-1 expression which can then have paracrine effects on controlling TGF-β activation in hepatic stellate cells. Furthermore, TGF-β can negatively impact hepatocyte regeneration following injury. Therefore, the ability of compounds to block TSP-1 activation of latent TGF-β will also be assessed in cultured primary human hepatocytes following the protocol described for the hepatic stellate cells. Similar approaches have successfully been used to screen compounds which inhibit human myeloma cell derived latent TGF-β activation by TSP-1 (Lu et al. (2016) Am J Pathol 186:678-690).
Target sequence in this assay (P07996 whole entry): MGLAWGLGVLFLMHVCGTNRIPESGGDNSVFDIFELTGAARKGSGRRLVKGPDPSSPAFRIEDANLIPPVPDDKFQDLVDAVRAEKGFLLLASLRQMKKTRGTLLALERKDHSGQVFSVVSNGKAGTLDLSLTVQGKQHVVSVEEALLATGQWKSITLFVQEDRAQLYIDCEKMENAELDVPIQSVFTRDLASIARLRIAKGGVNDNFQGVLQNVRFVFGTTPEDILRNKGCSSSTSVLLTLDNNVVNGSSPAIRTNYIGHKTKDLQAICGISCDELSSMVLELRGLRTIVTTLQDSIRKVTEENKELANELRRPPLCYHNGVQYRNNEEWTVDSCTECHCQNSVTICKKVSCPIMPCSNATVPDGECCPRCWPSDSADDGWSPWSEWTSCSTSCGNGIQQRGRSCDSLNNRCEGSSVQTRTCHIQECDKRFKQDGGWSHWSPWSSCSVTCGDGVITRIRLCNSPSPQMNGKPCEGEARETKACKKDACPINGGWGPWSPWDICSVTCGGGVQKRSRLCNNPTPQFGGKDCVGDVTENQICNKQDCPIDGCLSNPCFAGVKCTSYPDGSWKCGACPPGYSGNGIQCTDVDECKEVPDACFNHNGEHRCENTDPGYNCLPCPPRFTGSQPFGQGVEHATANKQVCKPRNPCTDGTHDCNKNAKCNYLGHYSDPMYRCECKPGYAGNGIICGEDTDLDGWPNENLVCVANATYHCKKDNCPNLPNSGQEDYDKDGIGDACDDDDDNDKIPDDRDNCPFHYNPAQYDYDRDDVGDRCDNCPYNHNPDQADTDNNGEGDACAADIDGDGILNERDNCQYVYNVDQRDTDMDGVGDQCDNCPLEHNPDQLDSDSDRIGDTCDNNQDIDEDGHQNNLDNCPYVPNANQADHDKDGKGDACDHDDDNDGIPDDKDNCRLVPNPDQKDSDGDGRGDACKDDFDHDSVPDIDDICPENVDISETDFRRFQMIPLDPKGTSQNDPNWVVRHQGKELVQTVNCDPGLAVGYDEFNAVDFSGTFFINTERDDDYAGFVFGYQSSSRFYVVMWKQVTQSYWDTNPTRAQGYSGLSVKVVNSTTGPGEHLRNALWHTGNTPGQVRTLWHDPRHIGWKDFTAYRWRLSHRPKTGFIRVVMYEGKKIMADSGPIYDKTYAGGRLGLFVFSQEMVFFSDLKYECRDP
Regarding `CC(=O)NC(Cc1ccc(CN)cc1)c1nnc(-c2cccc(OC(F)(F)F)c2)s1` (racemic) [Compound 41791], inhibition was half-maximal at 0.061 µM (IC50).

In turn, `CC(=O)N[C@@H](Cc1ccc(CN)cc1)c1nnc(-c2cccc(OC(F)(F)F)c2)s1` (single isomer, unassigned) [Compound 41891] registered an IC50 of 0.026 µM.

For `CC(=O)N[C@H](Cc1ccc(CN)cc1)c1nnc(-c2cccc(OC(F)(F)F)c2)s1` (single isomer, unassigned) [Compound 41892], half-maximal inhibition (IC50) required 0.0269 µM.

The compound `CC(=O)NC(Cc1ccc(CN)cc1)c1nnc(-c2ccncc2)s1` (centres unmarked) [Compound 39245, N-(2-(4-(aminomethyl)phenyl)-1-(5-(pyridin-4-yl)-1,3,4-thiadiazol-2-yl)ethyl)acetamide] returned an IC50 of 0.033 µM.

In the case of `CC(=O)NC(Cc1ccc(N)cc1)c1nnc(-c2cccc(OC(F)(F)F)c2)s1` (centres unmarked) [Compound 39999, N-(2-(4-aminophenyl)-1-(5-(3-(trifluoromethoxy)phenyl)-1,3,4-thiadiazol-2-yl)ethyl)acetamide], the IC50 is 0.015 µM.

The compound `CC(=O)NC(Cc1ccc(CN)cc1)c1nnc(-c2cccc(OC(F)(F)F)c2)s1` (centres unmarked) [Compound 40000, N-(2-(4-(aminomethyl)phenyl)-1-(5-(3-(trifluoromethoxy)phenyl)-1,3,4-thiadiazol-2-yl)ethyl)acetamide] gave an IC50 of 0.028 µM.

In the case of `CC(=O)NC(Cc1ccc(CN)cc1)c1nnc(-c2ccc(F)cc2)s1` (centres unmarked) [Compound 40051, N-(2-(4-(aminomethyl)phenyl)-1-(5-(4-fluorophenyl)-1,3,4-thiadiazol-2-yl)ethyl)acetamide], the IC50 was 0.049 µM.

As for `CC(=O)NC(Cc1ccc(CN)cc1)c1nnc(-c2cc(C(F)(F)F)cc(C(F)(F)F)c2)s1` (centres unmarked) [Compound 40653, N-(2-(4-(aminomethyl)phenyl)-1-(5-(3,5-bis(trifluoromethyl)phenyl)-1,3,4-thiadiazol-2-yl)ethyl)acetamide], inhibition was half-maximal at 0.039 µM (IC50).

`COc1cccc(-c2nnc(C(Cc3ccc(CN)cc3)NC(C)=O)s2)c1` (centres unmarked) [Compound 41149, N-(2-(4-(aminomethyl)phenyl)-1-(5-(3-methoxyphenyl)-1,3,4-thiadiazol-2-yl)ethyl)acetamide hydrochloride] had an IC50 of 0.183 µM.

`CC(=O)NC(Cc1ccc(CN)cc1)c1nnc(-c2cccc(C(F)(F)F)c2)s1` (centres unmarked) [Compound 41152, N-(2-(4-(aminomethyl)phenyl)-1-(5-(3-(trifluoromethyl)phenyl)-1,3,4-thiadiazol-2-yl)ethyl)acetamide hydrochloride]: the IC50 was determined as 0.009 µM.

Take `COc1cc(-c2nnc(C(Cc3ccc(CN)cc3)NC(C)=O)s2)cc(C(F)(F)F)c1` (centres unmarked) [Compound 42330, N-(2-(4-(aminomethyl)phenyl)-1-(5-(3-methoxy-5-(trifluoromethyl)phenyl)-1,3,4-thiadiazol-2-yl)ethyl)acetamide]: the IC50 was determined as 0.006 µM.

For the compound `CC(=O)N(C)C(Cc1ccc(CN)cc1)c1nnc(-c2cccc(OC(F)(F)F)c2)s1` (centres unmarked) [Compound 42335, N-(2-(4-(aminomethyl)phenyl)-1-(5-(3-(trifluoromethoxy)phenyl)-1,3,4-thiadiazol-2-yl)ethyl)-N-methylacetamide Hydrochloride], half-maximal inhibition (IC50) was put at 0.03 µM.

Compound `NCc1cccc(CC(NC(=O)C2CCCCC2)c2nnc(-c3cccc(OC(F)(F)F)c3)s2)c1` (centres unmarked) [Compound 42461, N-(2-(3-(aminomethyl)phenyl)-1-(5-(3-(trifluoromethoxy)phenyl)-1,3,4-thiadiazol-2-yl)ethyl)cyclohexanecarboxamide] displayed an IC50 of 0.005 µM.

Consider `NCc1cccc(CC(NC(=O)C2CC2)c2nnc(-c3cccc(OC(F)(F)F)c3)s2)c1` (centres unmarked) [Compound 42468, N-(2-(3-(aminomethyl)phenyl)-1-(5-(3-(trifluoromethoxy)phenyl)-1,3,4-thiadiazol-2-yl)ethyl)cyclopropanecarboxamide], for which the IC50 turned out to be 0.008 µM.

`CC(=O)NC(Cc1ccc(CN)cc1)c1nnc(-c2cc(C)cc(OC(F)(F)F)c2)s1` (centres unmarked) [Compound 42470] registered an IC50 of 0.008 µM.

In turn, `COc1cc(C)cc(-c2nnc(C(Cc3ccc(CN)cc3)NC(C)=O)s2)c1` (centres unmarked) [Compound 42473] showed a half-maximal inhibitory concentration (IC50) of 0.008 µM.

Staying with this test, now noted: Table II.
Compound `CC(=O)NC(CCCCN)c1nnc(C2CCCCC2)s1` (centres unmarked) [Compound 39139, N-(5-Amino-1-(5-cyclohexyl-1,3,4-thiadiazol-2-yl)pentyl)acetamide] gave a half-inhibitory concentration (IC50) of 0.013 µM.

As to `CC(=O)NC(CCCCN)c1nnc(-c2ccc(F)cc2)s1` (centres unmarked) [Compound 39261, N-(5-Amino-1-(5-(4-fluorophenyl)-1,3,4-thiadiazol-2-yl)pentyl)acetamide], the IC50 stood at 0.324 µM.

The same test, now with this note: Table II, cells that print μM.
For the compound `CC(=O)NC(CCCCN)c1nnc(-c2ccc(F)cc2F)s1` (centres unmarked) [Compound 39425, N-(5-Amino-1-(5-(2,4-difluorophenyl)-1,3,4-thiadiazol-2-yl)pentyl)acetamide], the IC50 is above 1 µM.

`CC(=O)NC(CCCCN)c1nnc(-c2ccncc2)o1` (centres unmarked) [Compound 40074, N-(5-Amino-1-(5-(pyridin-4-yl)-1,3,4-oxadiazol-2-yl)pentyl)acetamide]: the 50% inhibitory concentration (IC50) is above 1 µM.

Values taken from patent US11033535B2, “Oxadiazoles and thiadiazoles as TGF-β inhibitors” (Southern Research Institute, priority 2017, dated 2021).
